EC50 data for 22 compounds are collected here from patent publication US11078170B2 (Assembly Biosciences, Inc., priority 2017, dated 2021).

Molecules are shown by their SMILES. Where only a bound is given, the exact number is not on record here.

The subject of the experiment is HBV viral production from HepAD38 cells. Kind of experiment: Activity of test compounds on viral production from HepAD38 cells (viral load by qPCR of HBV core sequence in supernatant). It counts as cell-based. The settings on record: Hepatitis B virus, 120 h, 5 days incubation, HBV DNA in supernatant by qPCR, top concentration 10 μM, read-out: Viral Load EC50 Activity range. Here is the method: Assay Measuring Activity of Test Compounds on Viral Production from HepAD38 Cells
HepAD38 cells grown in a T-150 flask (Corning, cat #: 430825) with Growth Medium (DMEM/F12 (1:1) (Hyclone, cat #: SH30023.02), 1×Pen/Strep (Invitrogen, cat #: 15140-122), 10% FBS (Tissue Culture Biologics, cat #: 101), 250 μg/mL G418 (Alfa Aesar, cat #: J62671), 1 μg/mL Tetracycline (Teknova, cat #: T3320)) were detached with 0.25% trypsin-EDTA (Invitrogen, cat #: 25200-056). Tetracycline-free treatment medium (15 mL DMEM/F12 (1:1) 1× Pen/step, with 2% FBS, Tet-system approved (Clontech, cat #: 631106) were then added to mix, transferred into a 50 ml conical tube (Falcon, cat #: 21008-918) and spun at 1300 rpm for 5 min. Pelleted cells were then re-suspended/washed with 50 mL of 1×DPBS (Invitrogen, cat #: 14190-136) 2 times and 50 mL treatment medium twice. HepAD38 cells were then re-suspended with 10 mL of treatment medium, syringed and counted. Wells of 96-well clear bottom TC plate (Corning, cat #: 3904) were seeded at 50,000 cells/well in 180 μL of treatment medium, and 20 μL of either 10% DMSO (Sigma, cat #: D4540) as controls or a 10× solution of test compounds in 10% DMSO in treatment media was added for a final compound concentration starting at 10 μM, and plates were incubated in 5% CO2 incubator at 37° C. for 5 days.
Subsequently viral load production was assayed by quantitative PCR (qPCR) of the HBV core sequence. PCR reaction mixture containing forward primers HBV-f 5′-CTGTGCCTTGGGTGGCTTT-3′, which is SEQ ID NO 1, (IDT DNA), Reverse primers HBV-r 5′-[…]-3′, which is SEQ ID NO 2 (IDT DNA), Fluorescent TaqMan™ Probes HBV-probe 5′-FAM/AGCTCCAAA/ZEN/[…]/3IABkFQ-3′ (IDT DNA), which is SEQ ID NO 3, 10 μL/well of PerfeCTa® qPCR ToughMix® (Quanta Biosciences, Cat #: 95114-05K), and 6 µL/well of DEPC water (Alfa Aesar, cat #: J62087) was prepared. Four μL of supernatant was added to 16 μL of the reaction mixture in a qPCR plate (Applied Biosytems, Cat #: 4309849), sealed with a film (Applied Biosystems, Cat #: 4311971), centrifuged for a few seconds, and subsequently run on an Applied Biosystems VIIA7. The PCR mixture was incubated at 45° C. for 5 min, then 95° C. for 10 min, followed by 40 cycles of 10 seconds at 95° C. and 20 seconds at 60° C. Viral load was quantified against known HBV DNA standards by using ViiA™ 7 Software. Viral load in the supernatant from wells with treated cells were compared against viral load in supernatant from DMSO control wells (≥3 per plate). Cell viability assay was performed with CellTiter-Glo Luminescent Cell Viability Assay (Promega, cat #: G7573) with modification. Mixed appropriate amount of CellTiter-Glo (CTG) 1×DPBS in a 1:1 ratio, added 100 uL of the mixture to each well followed completely removal of all supernatant in each well without touching cell surface. Incubated the plate at room temperature for 10 min on an orbital shaker, and then read the plate with a plate reader (TECAN M1000 or Envision). EC50 or CC50 values were calculated through curve-fitting of the four-parameter nonlinear-logistic-regression model (GraphPad Prism or Dotmatics). CC50 values were all >10 μM.
As for `CN1C(C(=O)Nc2ccc(C#N)cc2)CC(c2cccs2)NS1(=O)=O` (stereo not drawn) [HBV-CSU-019, Cis-N-(4-cyanophenyl)-2-methyl-5-(thiophen-2-yl)-1,2,6-thiadiazinane-3-carboxamide 1,1-dioxide], the concentration for a half-maximal effect (EC50) – broadly, the concentration needed to bring the measured effect to its halfway point – was over 5000 nM.
The figure for `CN1[C@@H](C(=O)Nc2ccc(F)c(Cl)c2)C[C@@H](c2ccc(-c3cccnc3)s2)NS1(=O)=O` [HBV-CSU-159-ISO-I, Cis-N-(3-chloro-4-fluorophenyl)-2-methyl-5-(5-(pyridin-3-yl)thiophen-2-yl)-1,2,6-thiadiazinane-3-carboxamide 1,1-dioxide] is 1000 to 5000 nM; for `CN1[C@H](C(=O)Nc2ccc(F)c(Cl)c2)C[C@H](c2cc(-c3cnn(C)c3)c(Cl)s2)NS1(=O)=O` [HBV-CSU-306-ISO-I, Cis-5-(5-chloro-4-(1-methyl-1-pyrazol-4-yl)thiophen-2-yl)-N-(3-chloro-4-fluorophenyl)-2-methyl-1,2,6-thiadiazinane-3-carboxamide 1,1-dioxide] it is under 1000 nM; for `Cc1ncc(C2CC(C(=O)Nc3ccc(F)c(Cl)c3)N(C)S(=O)(=O)N2)s1` (racemic) [HBV-CSU-224, Cis-N-(3-Chloro-4-fluorophenyl)-2-methyl-5-(2-methylthiazol-5-yl)-1,2,6-thiadiazinane-3-carboxamide 1,1-dioxide] it is under 1000 nM.
The figure for `CN1[C@@H](C(=O)Nc2ccc(F)c(Cl)c2)C[C@@H](c2cc(Br)cs2)NS1(=O)=O` [HBV-CSU-146-ISO-II, 5-(4-Bromothiophen-2-yl)-N-(3-chloro-4-fluorophenyl)-2-methyl-1,2,6-thiadiazinane-3-carboxamide 1,1-dioxide] is over 5000 nM; for `CN1[C@H](C(=O)Nc2cc(F)c(F)c(F)c2)C[C@H](c2ccc(F)cc2)NS1(=O)=O` [HBV-CSU-212-ISO-I, Cis-5-(4-Fluorophenyl)-2-methyl-N-(3,4,5-trifluorophenyl)-1,2,6-thiadiazinane-3-carboxamide 1,1-dioxide] it is under 1000 nM.
The figure for `CN1[C@@H](C(=O)Nc2ccc(F)c(Cl)c2)C[C@@H](c2ncc(-c3cccs3)s2)NS1(=O)=O` [HBV-CSU-178-ISO-II, Cis-N-(3-Chloro-4-fluorophenyl)-2-methyl-5-(5-(thiophen-2-yl)thiazol-2-yl)-1,2,6-thiadiazinane-3-carboxamide 1,1-dioxide] is 1000 to 5000 nM; for `CN1[C@H](C(=O)Nc2ccc(F)c(Cl)c2)C[C@H](c2ccc(-c3ccc(NS(C)(=O)=O)cc3)s2)NS1(=O)=O` [HBV-CSU-163-ISO-I, Cis-N-(3-chloro-4-fluorophenyl)-2-methyl-5-(5-(4-(methylsulfonamido)phenyl)thiophen-2-yl)-1,2,6-thiadiazinane-3-carboxamide 1,1-dioxide] it is under 1000 nM.
On to `CCN(CC)CCCN1[C@H](C(=O)Nc2ccc(F)c(Cl)c2)C[C@H](c2nccs2)NS1(=O)=O` (relative stereo) [HBV-CSU-101-ISO-II, Cis-N-(3-Chloro-4-fluorophenyl)-2-(3-(diethylamino)propyl)-5-(thiazol-2-yl)-1,2,6-thiadiazinane-3-carboxamide 1,1-dioxide], for which the EC50 is over 5000 nM.
In the case of `CN1C(C(=O)Nc2ccc(F)c(Cl)c2)CC(c2ccc(-c3cnn(C(F)(F)F)c3)s2)NS1(=O)=O` (stereo not shown) [HBV-CSU-321] it was under 1000 nM; in that of `O=C(Nc1ccc(F)c(Cl)c1)C1CC(c2nccs2)NS(=O)(=O)N1CC1CCCO1` (racemic) [HBV-CSU-079-Rac-A, Cis-N-(3-Chloro-4-fluorophenyl)-2-((tetrahydrofuran-2-yl)methyl)-5-(thiazol-2-yl)-1,2,6-thiadiazinane-3-carboxamide 1,1-dioxide], under 1000 nM.
The figure for `N#CCN1[C@@H](C(=O)Nc2ccc(F)c(Cl)c2)C[C@@H](c2nccs2)NS1(=O)=O` [HBV-CSU-093-ISO-II, Cis-N-(3-Chloro-4-fluorophenyl)-2-(cyanomethyl)-5-(thiazol-2-yl)-1,2,6-thiadiazinane-3-carboxamide 1,1-dioxide] is over 5000 nM.
In the case of `CN1[C@H](C(=O)Nc2ccc(F)c(Cl)c2)C[C@H](c2ccnn2C)NS1(=O)=O` [HBV-CSU-054-ISO-II, Cis-N-(3-Chloro-4-fluorophenyl)-2-methyl-5-(1-methyl-1H-pyrazol-5-yl)-1,2,6-thiadiazinane-3-carboxamide 1,1-dioxide] it was 1000 to 5000 nM; in that of `CN1[C@H](C(=O)Nc2ccc(F)c(Cl)c2)C[C@H](c2cc(-c3cnn(C)c3)cs2)NS1(=O)=O` [HBV-CSU-169-ISO-I, Cis-N-(3-chloro-4-fluorophenyl)-2-methyl-5-(4-(1-methyl-1H-pyrazol-4-yl)thiophen-2-yl)-1,2,6-thiadiazinane-3-carboxamide 1,1-dioxide], under 1000 nM.
As for `O=C(Nc1ccc(F)c(Cl)c1)C1CC(c2nccs2)NS(=O)(=O)N1CCc1c[nH]nn1` (racemic) [HBV-CSU-092, Cis-2-(2-(1H-1,2,3-Triazol-4-yl)ethyl)-N-(3-chloro-4-fluorophenyl)-5-(thiazol-2-yl)-1,2,6-thiadiazinane-3-carboxamide 1,1-dioxide], the EC50 lay within 1000 to 5000 nM.
In the case of `CN1[C@H](C(=O)Nc2ccc(F)c(Br)c2)C[C@H](c2ccc(F)cc2)NS1(=O)=O` [HBV-CSU-211-ISO-I, Cis-N-(3-Bromo-4-fluorophenyl)-5-(4-fluorophenyl)-2-methyl-1,2,6-thiadiazinane-3-carboxamide 1,1-dioxide] it was under 1000 nM; in that of `O=C(Nc1ccc(F)c(Cl)c1)C1CC(c2nccs2)NS(=O)(=O)N1CCOCc1ccccc1` (racemic) [HBV-CSU-095, Cis-2-(2-(benzyloxy)ethyl)-N-(3-chloro-4-fluorophenyl)-5-(thiazol-2-yl)-1,2,6-thiadiazinane-3-carboxamide 1,1-dioxide], 1000 to 5000 nM; in that of `CN1[C@H](C(=O)Nc2ccc(F)c(Cl)c2)C[C@H](c2ccc(-c3ccc(C#N)c(F)c3)s2)NS1(=O)=O` [HBV-CSU-156-ISO-I, Cis-N-(3-chloro-4-fluorophenyl)-5-(5-(4-cyano-3-fluorophenyl)thiophen-2-yl)-2-methyl-1,2,6-thiadiazinane-3-carboxamide 1,1-dioxide], under 1000 nM.
In the case of `CN1[C@H](C(=O)Nc2ccc(F)c(Cl)c2)C[C@H](c2ccc(-c3cncnc3)s2)NS1(=O)=O` [HBV-CSU-272-ISO-I, Cis-N-(3-chloro-4-fluorophenyl)-2-methyl-5-(5-(pyrimidin-5-yl)thiophen-2-yl)-1,2,6-thiadiazinane-3-carboxamide 1,1-dioxide] it was under 1000 nM; in that of `CN1C(C(=O)Nc2ccc(F)c(Cl)c2)CC(c2cccc(OC(F)F)c2)NS1(=O)=O` (racemic) [HBV-CSU-264, Cis-N-(3-chloro-4-fluorophenyl)-5-(3-(difluoromethoxy)phenyl)-2-methyl-1,2,6-thiadiazinane-3-carboxamide 1,1-dioxide], under 1000 nM; in that of `CN1[C@H](C(=O)Nc2cc(F)c(F)c(Br)c2)C[C@H](c2cccs2)NS1(=O)=O` [HBV-CSU-049-ISO-I, Cis-N-(3-Bromo-4,5-difluorophenyl)-2-methyl-5-(thiophen-2-yl)-1,2,6-thiadiazinane-3-carboxamide 1,1-dioxide], under 1000 nM.
In the case of `CN1[C@@H](C(=O)Nc2ccc(F)c(Cl)c2)C[C@@H](c2ccc(-c3nncn3C)s2)NS1(=O)=O` [HBV-CSU-324-ISO-II, Cis-N-(3-Chloro-4-fluorophenyl)-2-methyl-5-(5-(4-methyl-4H-1,2,4-triazol-3-yl)thiophen-2-yl)-1,2,6-thiadiazinane-3-carboxamide 1,1-dioxide] it was 1000 to 5000 nM.
